# Measurements from patent US8129371B2, “Thienopyrimidine and pyrazolopyrimidine compounds and their use as mTOR kinase and PI3 kinase inhibitors” (Wyeth LLC, priority 2007, dated 2012).
# Where two headings read alike, the source gives them in different places.
# Experiments:
# Human mTOR (FLAG-TOR) = target: T1, Human mTOR (FLAG-TOR) (Homo sapiens, UniProt P42345); assay: Human mTOR kinase assay with purified enzyme, DELFIA format; type: biochemical
# T1 construct: FLAG
# Outline: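 Purified FLAG-mTOR in HEPES pH 7.4 buffer with 10 mM MnCl2 was preincubated with inhibitor and reacted 2 h at room temperature with His6-S6K substrate, then stopped with EDTA/EGTA. Phospho-T389 S6K detected by DELFIA with Eu-labelled antibody (40 ng/mL) after plate capture; inhibition computed from signal.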
# PI3K [1] = target: T2, PI3K (Homo sapiens, UniProt P42336); assay: Fluorescence polarization assay for PI3K; type: biochemical; conditions: read-out: PI3 Kinase α IC50
# T2 construct: PI3 Kinase α IC50; other: PI3 Kinase α; other: PI3 Kinase α isoform, fluorescence polarization
# Outline: (§1)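 PI3K was preincubated with compound (final DMSO 1%), and the reaction was started with PIP2/ATP substrate and run 30–60 min. It was stopped with a detector mix giving 10 nM red probe and 70 nM GST-GRP.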
# PI3K [2] = target: T3, PI3K (Homo sapiens, UniProt P48736); assay: Fluorescence polarization assay for PI3K; type: biochemical; conditions: read-out: PI3 Kinase γ IC50
# T3 construct: PI3 Kinase γ IC50; other: PI3 Kinase γ; other: PI3 Kinase γ isoform, fluorescence polarization
# Outline: as §1
# breast line MDA468 = assay: In vitro cell culture growth assay (MTS), MDA468; type: cell-based; conditions: Homo sapiens, 72 h, MDA468 cells, three days after drug treatment
# Outline: (§2)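 Plate cells; add inhibitors on day 1; after 3 days' treatment, add MTS; read A490; express as percent growth of vehicle-treated control.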
# prostate line LNCap = assay: In vitro cell culture growth assay (MTS), LNCap; type: cell-based; conditions: Homo sapiens, LNCaP, 72 h, LNCap cells, three days after drug treatment
# Outline: as §2
# [3] = purified human mTOR enzyme, DELFIA format
# [4] = PI3 Kinase α isoform, fluorescence polarization
# [5] = PI3 Kinase γ isoform, fluorescence polarization
# T3 sequence (P48736 whole entry, canonical isoform): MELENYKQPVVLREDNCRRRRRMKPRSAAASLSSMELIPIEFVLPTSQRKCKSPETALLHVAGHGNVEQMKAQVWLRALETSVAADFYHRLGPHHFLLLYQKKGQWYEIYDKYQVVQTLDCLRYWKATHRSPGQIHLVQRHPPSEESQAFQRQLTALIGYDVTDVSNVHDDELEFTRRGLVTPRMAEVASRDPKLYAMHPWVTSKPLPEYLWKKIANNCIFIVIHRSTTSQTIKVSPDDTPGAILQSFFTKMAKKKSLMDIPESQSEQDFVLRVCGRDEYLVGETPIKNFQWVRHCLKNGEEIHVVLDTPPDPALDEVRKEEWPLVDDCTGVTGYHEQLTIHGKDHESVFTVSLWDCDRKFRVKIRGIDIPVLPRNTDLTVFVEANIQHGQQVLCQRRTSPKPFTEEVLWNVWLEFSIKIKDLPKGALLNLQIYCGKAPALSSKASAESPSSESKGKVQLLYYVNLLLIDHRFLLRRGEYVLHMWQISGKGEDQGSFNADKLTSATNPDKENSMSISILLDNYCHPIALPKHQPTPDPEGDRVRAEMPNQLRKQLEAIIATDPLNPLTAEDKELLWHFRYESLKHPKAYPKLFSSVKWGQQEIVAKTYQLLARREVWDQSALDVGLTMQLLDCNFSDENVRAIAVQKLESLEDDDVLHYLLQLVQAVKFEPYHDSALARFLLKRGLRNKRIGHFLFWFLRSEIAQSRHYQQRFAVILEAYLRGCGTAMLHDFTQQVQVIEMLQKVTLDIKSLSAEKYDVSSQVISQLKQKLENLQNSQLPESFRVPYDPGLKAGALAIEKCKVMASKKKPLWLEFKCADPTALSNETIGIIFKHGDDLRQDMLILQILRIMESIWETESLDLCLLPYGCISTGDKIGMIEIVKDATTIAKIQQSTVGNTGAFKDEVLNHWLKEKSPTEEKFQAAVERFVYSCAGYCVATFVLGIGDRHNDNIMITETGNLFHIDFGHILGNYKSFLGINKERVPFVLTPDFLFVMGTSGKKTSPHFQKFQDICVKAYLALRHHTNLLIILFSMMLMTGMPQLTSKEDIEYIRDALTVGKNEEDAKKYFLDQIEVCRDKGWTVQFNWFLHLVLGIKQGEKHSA
# T2 sequence (P42336 whole entry, canonical isoform): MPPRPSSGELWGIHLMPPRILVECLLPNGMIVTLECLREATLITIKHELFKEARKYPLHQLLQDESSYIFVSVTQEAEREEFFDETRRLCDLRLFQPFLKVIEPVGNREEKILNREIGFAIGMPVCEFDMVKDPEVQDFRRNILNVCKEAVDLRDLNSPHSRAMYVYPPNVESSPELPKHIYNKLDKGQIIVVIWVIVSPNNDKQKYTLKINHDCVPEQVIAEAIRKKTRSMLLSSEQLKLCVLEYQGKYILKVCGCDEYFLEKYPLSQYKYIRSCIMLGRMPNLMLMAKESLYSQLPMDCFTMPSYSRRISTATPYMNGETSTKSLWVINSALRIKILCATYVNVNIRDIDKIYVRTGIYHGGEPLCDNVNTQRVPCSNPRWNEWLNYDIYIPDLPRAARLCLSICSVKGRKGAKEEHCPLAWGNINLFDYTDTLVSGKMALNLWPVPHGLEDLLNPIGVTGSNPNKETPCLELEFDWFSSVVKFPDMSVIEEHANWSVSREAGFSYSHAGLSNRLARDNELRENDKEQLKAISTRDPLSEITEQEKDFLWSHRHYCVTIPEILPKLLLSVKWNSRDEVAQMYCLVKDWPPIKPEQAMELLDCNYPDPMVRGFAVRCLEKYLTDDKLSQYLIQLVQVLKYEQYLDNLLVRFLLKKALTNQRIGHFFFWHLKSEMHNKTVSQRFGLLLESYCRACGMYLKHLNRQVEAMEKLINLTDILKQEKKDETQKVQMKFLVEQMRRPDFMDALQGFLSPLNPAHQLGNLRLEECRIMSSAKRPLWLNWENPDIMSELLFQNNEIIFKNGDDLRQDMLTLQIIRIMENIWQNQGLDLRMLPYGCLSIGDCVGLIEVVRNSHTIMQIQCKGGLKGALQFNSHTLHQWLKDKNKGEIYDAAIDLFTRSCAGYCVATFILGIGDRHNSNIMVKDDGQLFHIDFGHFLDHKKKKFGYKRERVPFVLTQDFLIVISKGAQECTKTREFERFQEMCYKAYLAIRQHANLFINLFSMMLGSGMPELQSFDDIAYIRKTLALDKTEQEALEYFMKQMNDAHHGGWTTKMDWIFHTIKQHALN
Compound,IC50 (Human mTOR (FLAG-TOR); [3]) [nM],IC50 (PI3K [1]; [4]) [nM],IC50 (PI3K [2]; [5]) [nM],IC50 (prostate line LNCap) [nM],IC50 (Human mTOR (FLAG-TOR)) [nM],IC50 (PI3K [1]; PI3 Kinase α) [nM],IC50 (PI3K [2]; PI3 Kinase γ) [nM],IC50 (breast line MDA468) [nM]
"c1cc2cc(-c3nc(N4CC5CCC(C4)O5)c4sccc4n3)ccc2[nH]1 [Example 419, 2-(1H-indol-5-yl)-4-(8-oxa-3-azabicyclo[3.2.1]oct-3-yl)thieno[3,2-d]pyrimidine]",22,8620,> 10000,1350,–,–,–,7900
"CCNC(=O)Nc1ccc(-c2nc(N3CC4CCC(C3)O4)c3cnn(C(COC)COC)c3n2)cc1 [Example 320, 1-ethyl-3-(4-{1-[2-methoxy-1-(methoxymethyl)ethyl]-4-(8-oxa-3-azabicyclo[3.2.1]oct-3-yl)-1H-pyrazolo[3,4-d]pyrimidin-6-yl}phenyl)urea]",9.1,1950,> 10000,160,–,–,–,590
"CN1CCN(Cc2cc3nc(-c4ccc(NC(=O)Nc5cccnc5)cc4)nc(N4CC5CCC(C4)O5)c3s2)CC1 [Example 426, 1-(4-{6-[(4-methylpiperazin-1-yl)methyl]-4-(8-oxa-3-azabicyclo[3.2.1]oct-3-yl)thieno[3,2-d]pyrimidin-2-yl}phenyl)-3-pyridin-3-ylurea]",4.7,148,2610,180,–,–,–,380
"Cn1ncc2c(N3CC4CCC(C3)O4)nc(-c3ccc(NC(=O)NC4CC4)cc3)nc21 [Example 53, 1-cyclopropyl-3-{4-[1-methyl-4-(8-oxa-3-azabicyclo[3.2.1]oct-3-yl)-1H-pyrazolo[3,4-d]pyrimidin-6-yl]phenyl}urea]",–,–,–,72,1.4,845,8820,800
"CN1CCN(C2CCC(n3ncc4c(N5CC6CCC(C5)O6)nc(-c5ccc(NC(=O)NCCF)cc5)nc43)CC2)CC1 (stereo not shown) [Example 371, 1-(2-fluoroethyl)-3-(4-{1-[4-(4-methylpiperazin-1-yl)cyclohexyl]-4-(8-oxa-3-azabicyclo[3.2.1]oct-3-yl)-1H-pyrazolo[3,4-d]pyrimidin-6-yl}phenyl)urea]",1.3,2490,8930,190,–,–,–,460
"COC(=O)N1CCC(n2ncc3c(N4CC5CCC(C4)O5)nc(-c4ccc(NC(=O)OCCO)cc4)nc32)CC1 [Example 112, methyl 4-[6-(4-{[(2-hydroxyethoxy)carbonyl]amino}phenyl)-4-(8-oxa-3-azabicyclo[3.2.1]oct-3-yl)-1H-pyrazolo[3,4-d]pyrimidin-1-yl]piperidine-1-carboxylate]",–,–,–,40,0.75,1260,> 10000,1050
"O=C(Nc1ccc(-c2nc(N3CC4CCC(C3)O4)c3cnn(C4CCC(N5CCCC5)CC4)c3n2)cc1)Nc1cccnc1 (stereo not shown) [Example 332, 1-{4-[4-(8-oxa-3-azabicyclo[3.2.1]oct-3-yl)-1-(4-pyrrolidin-1-ylcyclohexyl)-1H-pyrazolo[3,4-d]pyrimidin-6-yl]phenyl}-3-pyridin-3-ylurea]",2.45,351,2760,370,–,–,–,900

# Now those with a lower IC50 (prostate line LNCap), led by results:
IC50 (Human mTOR (FLAG-TOR); [3]) [nM],IC50 (PI3K [1]; [4]) [nM],IC50 (PI3K [2]; [5]) [nM],IC50 (prostate line LNCap) [nM],IC50 (Human mTOR (FLAG-TOR)) [nM],IC50 (PI3K [1]; PI3 Kinase α) [nM],IC50 (PI3K [2]; PI3 Kinase γ) [nM],Compound,IC50 (breast line MDA468) [nM]
0.52,1500,6600,1,–,–,–,"CO[C@H]1CC[C@H](n2ncc3c(N4CC5CCC(C4)O5)nc(-c4ccc(NC(=O)NC5CC5)cc4)nc32)CC1 (relative stereo) [Example 399, 1-cyclopropyl-3-{4-[1-(trans-4-methoxycyclohexyl)-4-(8-oxa-3-azabicyclo[3.2.1]oct-3-yl)-1H-pyrazolo[3,4-d]pyrimidin-6-yl]phenyl}urea]",41
–,–,–,10,1.1,464,2980,"CCn1ncc2c(N3CC4CCC(C3)O4)nc(-c3ccc(NC(=O)Nc4ccc(Cl)cc4)cc3)nc21 [Example 188, 1-(4-chlorophenyl)-3-{4-[1-ethyl-4-(8-oxa-3-azabicyclo[3.2.1]oct-3-yl)-1H-pyrazolo[3,4-d]pyrimidin-6-yl]phenyl}urea]",190
–,–,–,< 1,0.425,234,1220,"COC(=O)N1CCC(n2ncc3c(N4CC5CCC(C4)O5)nc(-c4ccc(NC(=O)Nc5ccc(N6CCN(C)CC6)nc5)cc4)nc32)CC1 [Example 167, methyl 4-{6-[4-({[6-(4-methylpiperazin-1-yl)pyridin-3-yl]carbamoyl}amino)phenyl]-4-(8-oxa-3-azabicyclo[3.2.1]oct-3-yl)-1H-pyrazolo[3,4-d]pyrimidin-1-yl}piperidine-1-carboxylate]",4
–,–,–,< 1,0.835,136,1780,"CCn1ncc2c(N3CC4CCC(C3)O4)nc(-c3ccc(NC(=O)Nc4ccc(OCCN(C)C)cc4)cc3)nc21 [Example 186, 1-{4-[2-(dimethylamino)ethoxy]phenyl}-3-{4-[1-ethyl-4-(8-oxa-3-azabicyclo[3.2.1]oct-3-yl)-1H-pyrazolo[3,4-d]pyrimidin-6-yl]phenyl}urea]",8
–,–,–,1,2.65,160,1530,"CN(C)CCn1ncc2c(N3CC4CCC(C3)O4)nc(-c3ccc(NC(=O)Nc4ccccc4)cc3)nc21 [Example 156, 1-(4-{1-[2-(dimethylamino)ethyl]-4-(8-oxa-3-azabicyclo[3.2.1]oct-3-yl)-1H-pyrazolo[3,4-d]pyrimidin-6-yl}phenyl)-3-phenylurea]",68
0.39,80,1380,10,–,–,–,"O=C(Nc1ccncc1)Nc1ccc(-c2nc(N3CC4CCC(C3)O4)c3sccc3n2)cc1 [Example 413, 1-{4-[4-(8-oxa-3-azabicyclo[3.2.1]oct-3-yl)thieno[3,2-d]pyrimidin-2-yl]phenyl}-3-pyridin-4-ylurea]",48
–,–,–,1.7,0.2,324,2690,"CC(C)OC(=O)N1CCC(n2ncc3c(N4CC5CCC(C4)O5)nc(-c4ccc(NC(=O)Nc5cccnc5)cc4)nc32)CC1 [Example 72, isopropyl 4-[4-(8-oxa-3-azabicyclo[3.2.1]oct-3-yl)-6-{4-[(pyridin-3-ylcarbamoyl)amino]phenyl}-1H-pyrazolo[3,4-d]pyrimidin-1-yl]piperidine-1-carboxylate]",36
–,–,–,19,0.53,178,727,CC(C)(C)n1ncc2c(N3CC4CCC(C3)O4)nc(-c3ccc(NC(=O)Nc4ccncc4)cc3)nc21 [Example 101],110
–,–,–,12,0.39,412,4330,"O=C(Nc1ccc(-c2nc(N3CC4CCC(C3)O4)c3cnn(C4CCCCO4)c3n2)cc1)Nc1cccnc1 (stereo not shown) [Example 90, 1-{4-[4-(8-oxa-3-azabicyclo[3.2.1]oct-3-yl)-1-(tetrahydro-2H-pyran-2-yl)-1H-pyrazolo[3,4-d]pyrimidin-6-yl]phenyl}-3-pyridin-3-ylurea]",60
–,–,–,< 1,0.975,373,4750,"CCn1ncc2c(N3CC4CCC(C3)O4)nc(-c3ccc(NC(=O)Nc4ccc(OCCN5CCOCC5)nc4)cc3)nc21 [Example 283, 1-{4-[1-ethyl-4-(8-oxa-3-azabicyclo[3.2.1]oct-3-yl)-1H-pyrazolo[3,4-d]pyrimidin-6-yl]phenyl}-3-[6-(2-morpholin-4-ylethoxy)pyridin-3-yl]urea]",8
